From patent US20070059378A1, “Medical composition for balancing bodily processes” (Metagenics, Inc., priority 2001, published 2007)

Test system: subjects with PMS symptoms
Assay: Clinical study on PMS symptoms: Shortened Premenstrual Assessment Form (SPAF)
Type: in vivo, women
Conditions: medical food/I3C group vs medical food/placebo group
Protocol: The clinical trial was performed at the Functional Medicine Research Center, Gig Harbor, Wash. […] Exclusion criteria for the study included: evidence of untreated endocrine, neurological, or infectious disorder; pregnancy or lactation; history of diabetes, mental illness or attempted suicide, or liver, kidney or heart disease; use of oral corticosteroids within four weeks prior to the screening; use of anti-arrhythmic or other cardiac medications.
The study was a […], 2-armed trial with stratification based on the use of birth control medication. Primary endpoints were monitored at the Screening Visit, Visit 1, Visit 2, and Visit 3. […]
Two research-validated, PMS-specific questionnaires were chosen for monitoring PMS symptoms: the Shortened Premenstrual Assessment Form (SPAF) and the Menstrual Distress Questionnaire (MDQ). […] The MDQ data is transformed to provide a normalized score for which a population mean of 50 and a standard deviation of 10 have been determined as reference values. […]
Baseline data (the level of symptoms experienced in the preceding 2 menstrual cycles) were obtained from averaging the Screening Visit and Visit 1 values, and served as a control for non-intervention variability. Laboratory and questionnaire data were analyzed by a one-way analysis of variance (ANOVA) using JMP Statistical Package (SAS Institute, Cary, N.C.). […]

In the case of `OCc1c[nH]c2ccccc12` [Example I3C, indole-3-carbinol], the “additional effect of I3C on PMS symptoms (questionnaire data) over medical food/placebo” value is reported as “no difference” and the “additional effect of I3C on PMS symptoms (questionnaire data) over medical food/placebo” value (listed as 13C) is reported as “no additional effect”.
